IC50 and viability, T/C data for six compounds are collected here from PubChem BioAssay AID1918998 (Molecular Pharmacology Branch, DTP, NCI, 2023).

The test concerns 521955-158-R2-J5-PDC complex spheroid growth. The experiment in a line: Anticancer human tumor 521955-158-R2-J5-PDC patient-derived pancreatic carcinoma cell line growth inhibition [AhR]. To be noted: for viability, T/C: stronger effect = lower value. From the text:
Multicellular complex tumor spheroid response to aryl hydrocarbon receptor antagonists in combination with a variety of drugs and investigational agents in selected tumor cell lines
The current study was undertaken to assess response to aryl hydrocarbon receptor antagonists in combination with standard-of-care drugs and investigational agents in solid tumor complex spheroid models. Complex spheroids include a stromal component modeled by human endothelial cells (HUVEC) and fibroblasts modeled by human mesenchymal stem cells (MSCs). The concentration ranges selected for each drug and investigational agent were based upon clinically achievable concentrations if the clinical Cmax of the agent was known.
Compounds. The drugs and investigational agents: BAY 2416964 (NSC825713), GNF351 (NSC835774), CH-223191 (NSC835775), CPI-455 (NSC825282), aza-TdCyd (NSC777586), decitabine (NSC127716), belinostat (NSC758774), entinostat (NSC756642), pevonedistat (NSC761192), tazemetostat (NSC777109), talazoparib (NSC765396), olaparib (NSC753686), selinexor (NSC780203), nedisertib (M3814, NSC802822), bortezomib (NSC756655), venetoclax (NSC766270), doxorubicin (NSC123127), elimusertib (BAY189344, NSC800525), ceralasertib (AZD6738, NSC777638), TAK-243 (NSC785004), alisertib (NSC759677), etoposide (NSC141540), topotecan (NSC609699), eribulin (NSC707389), gemcitabine (NSC613327), carboplatin (NSC241240), cisplatin (NSC119875), and SN-38 (NSC673596) were obtained from the National Cancer Institute (NCI) Developmental Therapeutics Program Chemical Repository (32). The FDA-approved anticancer drug set is available from the Developmental Therapeutics Program at https://dtp.cancer.gov/organization/dscb/obtaining/available plates.htm. […] The stock solutions were prepared in dimethyl sulfoxide (DMSO, Sigma-Aldrich, St. Louis, MO, cat. D2650), except for the platinum compounds which were prepared in saline (Quality Biological, Gaithersburg, MD, cat. 114-055-101), at 800-fold the tested concentration and stored at -70 degrees C prior to their use. All drugs and investigational agents were tested over a range starting from a high concentration at or near the clinical Cmax and decreasing in half-log increments. If the clinical Cmax for an agent had not been determined, the highest concentration tested was 10 microM (Table 1).
Cell Culture. All cells were maintained in an incubator at 37 degrees C and 5% CO2 with 95% humidity. The PDC lines were cultured according to standard operating procedures established by the NCI PDMR (https://pdmr.cancer.gov). Briefly, all PDCs were thawed and cultured in Matrigel-coated flasks prepared with a working solution of 1X Ham's F-12 nutrient mix, without supplementation (Invitrogen, Waltham, MA, cat. 11765054), 100 U/mL penicillin-streptomycin (Invitrogen, cat. 15140122), and 2.5% Matrigel (Corning Inc., Corning, NY, cat. 354248) for the first three passages. All PDCs were cultured in complete DMEM/F-12 media containing advanced DMEM/F-12 (Invitrogen, cat. 12634028), 4.9% defined fetal bovine serum, heat inactivated (HyClone Laboratories Inc., Logan, UT, cat. SH30070.03HI), 389 ng/mL hydrocortisone (Sigma-Aldrich, cat. H4001), 9.7 ng/mL human EGF recombinant protein (Invitrogen, cat. PHG0313), 23.4 microg/mL adenine (Sigma-Aldrich, cat. A2786), 97.3 U/mL penicillin-streptomycin (Invitrogen, cat. 15140122), 1.9 mM L-glutamine (Invitrogen, cat. 25030081), and 9.7 microM Y-27632 dihydrochloride (Tocris Bioscience, Bristol, United Kingdom, cat. 1254). The PDCs were cultured in complete DMEM/F12 media without 10 microM Y-27632 dihydrochloride for at least two passages prior to the screen. The established cell lines NCI-H1341 and […] were cultured in DMEM/F-12, HEPES (Invitrogen, cat. 11330032), 5% defined fetal bovine serum (HyClone Laboratories Inc., cat. SH30070.03), ITS premix universal culture supplement [insulin (5 microg/mL), transferrin (5 microg/mL), and selenious acid (5 ng/mL)] […]

Several values for one entry are separate records, joined by “and”; a condition that tells them apart may be missing. Equal entries are not always repeated.
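For viability, T/C in this document: spheroids mix tumor cells with HUVEC endothelium and human MSC stroma; luminescence taken as viability surrogate after a week of drug exposure.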

As for `O=C(C=Cc1cccc(S(=O)(=O)Nc2ccccc2)c1)NO` + Cc1ccccc1N=Nc1ccc(NC(=O)c2ccnn2C)c(C)c1, the IC50 is, setting by setting: (curve of first compound, second compound 0.1 µM) greater than 10000 nM; (curve of first compound, second compound 0.316 µM) 6540 nM; (curve of first compound, second compound 1 µM) greater than 10000 nM; (curve of first compound, second compound 3.16 µM) 2920 nM; (curve of first compound, second compound 10 µM) 3550 nM. Further, the viability, T/C is 95.4% (second compound 0.1 µM, first compound 0.0316 µM); 104% (second compound 0.1 µM, first compound 0.1 µM); 121% (second compound 0.1 µM, first compound 0.316 µM); 96% (second compound 0.1 µM, first compound 1 µM); 72.6% (second compound 0.1 µM, first compound 3.16 µM); 52% (second compound 0.1 µM, first compound 10 µM). Besides, the viability, T/C by setting is: (second compound 0.316 µM, first compound 0.0316 µM) 102%; (second compound 0.316 µM, first compound 0.1 µM) 115%; (second compound 0.316 µM, first compound 0.316 µM) 128%; (second compound 0.316 µM, first compound 1 µM) 89.2%; (second compound 0.316 µM, first compound 3.16 µM) 65.5%; (second compound 0.316 µM, first compound 10 µM) 41.5%. In addition, the viability, T/C runs as follows: (second compound 1 µM, first compound 0.0316 µM) 105%; (second compound 1 µM, first compound 0.1 µM) 136%; (second compound 1 µM, first compound 0.316 µM) 136%; (second compound 1 µM, first compound 1 µM) 102%; (second compound 1 µM, first compound 3.16 µM) 59.5%; (second compound 1 µM, first compound 10 µM) 48.9%. Moreover, the viability, T/C was 105% (second compound 3.16 µM, first compound 0.0316 µM); 116% (second compound 3.16 µM, first compound 0.1 µM); 154% (second compound 3.16 µM, first compound 0.316 µM); 93.7% (second compound 3.16 µM, first compound 1 µM); 54.2% (second compound 3.16 µM, first compound 3.16 µM); 39.4% (second compound 3.16 µM, first compound 10 µM). Moreover, the viability, T/C reads like this: (second compound 10 µM, first compound 0.0316 µM) 147%; (second compound 10 µM, first compound 0.1 µM) 146%; (second compound 10 µM, first compound 0.316 µM) 129%; (second compound 10 µM, first compound 1 µM) 87.9%; (second compound 10 µM, first compound 3.16 µM) 56.6%; (second compound 10 µM, first compound 10 µM) 24.9%.
In the case of `CC[C@@]1(O)C(=O)OCc2c1cc1n(c2=O)Cc2cc3c(CN(C)C)c(O)ccc3nc2-1`, the viability, T/C was 93.2% and 80.6% and 77.3% (compound 0.000316 µM); 90.4% and 95% and 67.7% (compound 0.001 µM); 80.1% and 84.2% and 84.3% (compound 0.00316 µM); 86.6% and 65.1% and 63.1% (compound 0.01 µM); 62.3% and 43.2% and 34.2% (compound 0.0316 µM); 33.1% and 22.1% and 23.6% (compound 0.1 µM). Where the note is “curve of compound”, the IC50 was 52.7 nM and 21.7 nM and 17.1 nM.
Consider `CC1COCCN1c1cc(-c2ccnn2C)c2ccnc(-c3ccn[nH]3)c2n1` (stereo not given), for which the viability, T/C by setting is: (compound 0.00316 µM) 96.3% and 94.8% and 101%; (compound 0.01 µM) 98.2% and 92.8% and 104%; (compound 0.0316 µM) 97.8% and 84.1% and 95.1%; (compound 0.1 µM) 48% and 79.2% and 42.4%; (compound 0.316 µM) 15.5% and 19.4% and 16.3%; (compound 1 µM) 19.2% and 18.6% and 16%. Also, the IC50 (curve of compound) was 95.5 nM and 176 nM and 84.6 nM.
Consider `Cn1ncnc1C1c2n[nH]c(=O)c3cc(F)cc(c23)NC1c1ccc(F)cc1` (stereo not given), for which the viability, T/C runs as follows: (compound 0.000316 µM) 106% and 64.7% and 90.7%; (compound 0.001 µM) 103% and 97.9% and 110%; (compound 0.00316 µM) 94.6% and 105% and 89.1%; (compound 0.01 µM) 94.8% and 75% and 89.5%; (compound 0.0316 µM) 85.7% and 73.9% and 97.8%; (compound 0.1 µM) 84.5% and 74% and 80.7%. The IC50 (curve of compound) was greater than 100 nM.
As for `CCc1c2c(nc3ccc(O)cc13)-c1cc3c(c(=O)n1C2)COC(=O)[C@]3(O)CC`, the viability, T/C (compound 0.000949 µM) is 73.4% and 63.5% and 74.2%; the viability, T/C (compound 0.003 µM) is 71% and 71.7% and 44.2%; the viability, T/C (compound 0.00949 µM) is 38.3% and 39.2% and 18.2%; the viability, T/C (compound 0.03 µM) is 22% and 28.9% and 12%; the viability, T/C (compound 0.0949 µM) is 16.9% and 22.7% and 10%; the viability, T/C (compound 0.3 µM) was 14.9% and 13.4% and 8.11%. Besides, for the setting “curve of compound”, the IC50 was 6.31 nM and 6.13 nM and 2.39 nM.
For the compound `Nc1ncn(C2CC(O)C(CO)S2)c(=O)n1` (stereo not given), the viability, T/C by setting is: (compound 0.000949 µM) 104% and 88.3% and 99.6%; (compound 0.003 µM) 100% and 82.5% and 108%; (compound 0.00949 µM) 97.7% and 84.6% and 93%; (compound 0.03 µM) 93.5% and 74.3% and 75.1%; (compound 0.0949 µM) 98.7% and 75.1% and 73.7%; (compound 0.3 µM) 91.9% and 72.8% and 71.8%. The IC50 (curve of compound) is greater than 300 nM.

Broadly, the IC50 is the concentration that gives 50% inhibition. A word on the viability, T/C: it is the ratio of treated to control.
